Here are results for 65 compounds from PubChem BioAssay AID1902 (Broad Institute, 2009).

SMILES strings stand for the structures. Calls of active or inactive are those of the source.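 The calls were made as follows: active = EC50 no more than a set limit of log units above the highest dose; inactive = the rest.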

In the assay the target is S. pyogenes SKKanGAS, kanamycin survival, BacTiterGlo, 6 h. In words: SKKanGAS survival reduction under kanamycin, dose response, streptokinase promoter inhibitor project, SKKanGAS strain, luminescence, dose confirmation (AID 1902).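 Also: lower survival reflects blocked streptokinase promoter driving kanamycin resistance gene.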
With `COc1cccc(NCc2cc(=O)oc3cc(C)c(O)cc23)c1`, the EC50 is 1.85 µM.

On to `COc1ccc(/C=C/C(=O)NC(=S)NNC(=O)Cc2cccs2)cc1`, for which the EC50 is 1.23 µM.

Turning to `Cc1[nH]c(-c2ccc(F)cc2)cc1C(=O)N1CCN(c2cccc(Cl)c2)CC1`, the EC50 is 4.92 µM.

As for `CC(Oc1ccc(F)cc1)C(=O)Nc1ccccc1N1CCCCC1` (stereo not given), the EC50 is 5.01 µM.

On to `FC(F)(F)c1cccc(NC(=S)N2CCCC2)c1`, for which the EC50 was > 15 µM (inactive).

As for `COc1cc(OC)c(NC(=O)c2sc3ncn(CC(=O)N4CCN(c5ccccn5)CC4)c(=O)c3c2C)cc1Cl`, the EC50 is 6.52 µM.

Take `CC(Nc1nc(-c2ccccc2O)nc2ccccc12)c1ccccc1` (stereo not given): the EC50 was 8.79 µM.

For the compound `CN=C(Nc1cc(Cl)ccc1Cl)SC1CC(=O)N(c2ccc(C(=O)OC)cc2)C1=O` (stereo not given), the concentration for a half-maximal effect (EC50) is 7.4 µM.

As for `COc1ccc(-c2csc(NC(=S)NC(=O)c3cccs3)n2)cc1OC`, the EC50 was 13.9 µM.

Consider `COCCn1c(SCC(=O)Nc2ccc(F)cc2)nc2c([nH]c3ccccc32)c1=O`, for which the EC50 was > 15 µM (inactive).

Take `COc1ccc(CCNC(=O)c2cc(-c3ccc(Cl)c(Cl)c3)oc2C)cc1`: the EC50 was 12.2 µM.

As for `Cc1cc(C)n(-c2nc(Nc3ccccc3C)nc(-n3nc(C)cc3C)n2)n1`, the EC50 was 5.32 µM.

As for `O=C(CSc1nnc(NC(=O)C2CC(=O)N(c3ccc(F)cc3)C2)s1)NCc1ccco1` (stereo not given), the EC50 is > 15 µM (inactive).

Turning to `CCn1cc(C(=O)O)c(=O)c2cc(F)c(N3CCN(C(=S)Nc4ccc(OC)cc4)CC3)cc21`, the 50% effective concentration (EC50) is 3.18 µM.

Turning to `O=C(O)CN1C(=O)/C(=C\c2cc(Br)ccc2OCc2ccccc2Cl)SC1=S`, the concentration giving a half-maximal response (EC50) was 2.08 µM.

As to `CC(=O)O[C@H]1C[C@@]2(C)[C@@H](C[C@@H](O)[C@H]3[C@@]4(C)CC[C@@H](O)[C@@H](C)[C@@H]4CC[C@@]32C)/C1=C(\CCC=C(C)C)C(=O)O`, the EC50 is 0.177 µM.

With `CC(C)C[C@H](NC(=O)c1[nH]cnc1C(=O)N[C@@H](C)c1ccccc1)C(=O)OCc1ccccc1`, the EC50 is 1.16 µM.

In the case of `C/C(=N\NC(=S)NCCc1ccccc1)c1ccc(Cl)cc1Cl`, the EC50 was 6.56 µM.

Consider `CCC[C@@H]1C[C@@]1(CCC)[C@@H](NP(=O)(c1ccccc1)c1ccccc1)c1ccc(C(=O)OC)cc1`, for which the EC50 was 2.14 µM.

With `COc1ccc(CNC(=O)Cc2csc(NC(=O)Nc3ccccc3OC)n2)cc1`, the EC50 was 15 µM.

As to `O=C(NNc1ccccc1Br)C(O)(c1cccc(C(F)(F)F)c1)c1cccc(C(F)(F)F)c1`, the EC50 is 2.59 µM.

Regarding `Cc1[nH][nH]c(=O)c1C(c1c(C)[nH][nH]c1=O)c1cn(Cc2ccc(Cl)c(Cl)c2)c2ccccc12`, the EC50 is 3.07 µM.

With `CCOc1ccc(NC(=S)NNC(=S)Nc2cccc(C(F)(F)F)c2)cc1`, the EC50 was > 15 µM (inactive).

As for `O=C(Nc1cccnc1)Nc1cc(Cl)cc(Cl)c1`, the EC50 was 8.7 µM.

On to `COC(=O)[C@@H]1[C@@H](C#N)C2(c3ccccc3-c3ccccc32)N(c2ccc(Cl)cc2)N1C#N`, for which the EC50 is 9.76 µM.

With `O=C(/C=C/c1ccccc1)NC(NC(=S)Nc1cccc(Cl)c1)C(Cl)(Cl)Cl` (stereo not given), the concentration for a half-maximal effect (EC50) is 1.85 µM.

For the compound `COc1ccc(C(=O)NC(=S)N(Cc2ccccc2)Cc2ccccc2)cc1`, the EC50 was 0.674 µM.

For `Cc1cccc(-c2oc3ccccc3c2C#CCCCCO)c1`, the EC50 is 5.72 µM.

Take `CC(C)CC(=O)Nc1ccc(C(=O)NNC(=S)NC(=O)C2CCCCC2)cc1`: the EC50 is 1 µM.

For the compound `NC(=NCCCCCCN=C(N)/N=C(\N)Nc1ccc(Cl)cc1)/N=C(\N)Nc1ccc(Cl)cc1`, the EC50 was 0.789 µM.

Take `Cc1c(-c2cccc(Cl)c2)nc2ccccc2c1C(=O)OC/C(O)=C(\C#N)c1nc2ccccc2[nH]1`: the EC50 was 1.9 µM.

Turning to `COc1cc(/C=N/NC(=O)c2cc(-c3c(C)nn(-c4ccccc4)c3C)n[nH]2)ccc1O`, the EC50 is 2.97 µM.

Consider `CC(Oc1ccc(Cl)cc1Cl)C(=O)NC1=NN(c2ccccc2)C(=O)C1` (stereo not given), for which the concentration giving a half-maximal response (EC50) is 2.92 µM.

With `Cc1nn(C)c(C(=O)Nc2ccc(S(=O)(=O)NC34CC5CC(CC(C5)C3)C4)cc2)c1Br`, the EC50 is 4.9 µM.

As for `COc1ccc(NC(=O)c2nc[nH]c2C(=O)N[C@@H](CC(C)C)C(=O)OC(C)(C)C)cc1`, the EC50 is 3.28 µM.

With `CCN1CCN(c2cc3c(cc2F)c(=O)c(C(=O)O)cn3C2CC2)CC1`, the EC50 is 1.29 µM.

Regarding `CCCCCCCCCCOC(=O)Cn1c(COc2ccc(C)cc2)[n+](C)c2ccccc21`, the EC50 is 5.67 µM.

Take `O=C(COc1ccc([N+](=O)[O-])cc1)Nc1nc(-c2ccccn2)cs1`: the 50% effective concentration (EC50) was 3.68 µM.

On to `COc1ccc(OC)c(C2C=C(C34CC5CC(CC(C5)C3)C4)NC(=S)N2)c1` (stereo not given), for which the EC50 was 2.96 µM.

For the compound `Cc1cc(C(=O)N/N=C/c2cc(N=Nc3ccccc3)ccc2O)n[nH]1`, the EC50 is 2.02 µM.

In the case of `C/C(=N/NS(=O)(=O)c1ccc(Cl)cc1)c1cccc(NC(=O)c2ccc(Cl)cc2Cl)c1`, the concentration giving a half-maximal response (EC50) was 4.79 µM.

Turning to `N#CC1=C(c2ccccc2)/C(=C/c2ccccc2)OC1=O`, the EC50 is 9.97 µM.

As to `C/C(=N\NC(=O)c1cc(Br)ccc1O)c1ccccn1`, the EC50 is under 0.06 µM.

In the case of `Cc1cc(N/N=C/c2cccc(Cl)c2)nc(-n2nc(C)cc2C)n1`, the EC50 was 0.966 µM.

For `C/C(=N/NC(=O)c1cccs1)c1c(C)[nH]n(-c2nc3ccccc3s2)c1=O`, the EC50 was 3.24 µM.

As for `COc1ccc(C)cc1N=Nc1ccc(O)c2ncccc12`, the EC50 is 0.168 µM.

With `O=C(N/N=C/c1sc2ccccc2c1O)c1cccc2ccccc12`, the EC50 was 2.52 µM.

`Oc1cccc2ccc(/C=C/c3ccccc3Br)nc12`: the EC50 was 0.158 µM.

Turning to `COc1ccc(NC(=O)C(OC(=O)c2cnc(C)cn2)c2ccccc2)cc1Cl` (stereo not given), the concentration giving a half-maximal response (EC50) is 11.7 µM.

`CCCOc1ccc(C(=O)NNC(=S)NC(=O)CC)cc1`: the EC50 was 0.431 µM.

`CCCCCC(=O)NC(=S)NC1C2CC3CC(C2)CC1C3` (stereo not given): the 50% effective concentration (EC50) was 3.83 µM.

As for `COc1ccc(CN2C(=O)c3ccccc3C(/C=N/OCc3ccc(Cl)cc3)C2=O)cc1` (stereo not given), the EC50 was 1.11 µM.

`COc1ccc(C(CNC(=O)c2cccc(S(=O)(=O)Nc3ccccc3Cl)c2)N2CCOCC2)cc1` (stereo not given): the EC50 is 11.1 µM.

Regarding `CC(C)Cn1c(=O)c(C(=O)Nc2ccccc2S(N)(=O)=O)c(O)c2ccccc21`, the EC50 is 8.58 µM.

For `Cc1n[nH]c(=O)c2c(NC(=O)CSc3nnnn3-c3ccccc3)oc(C)c12`, the EC50 is > 15 µM (inactive).

As for `Cc1cc(C)n(-c2nc(SCC(=O)O)c3c4c(sc3n2)COC(C)(C)C4)n1`, the EC50 is 4.31 µM.

As for `CC(C)c1c(C(=O)N/N=C/c2cccc(OCc3ccccc3)c2)nnn1-c1nonc1N`, the EC50 was 9.4 µM.

For the compound `O=[N+]([O-])c1ccc(N=Nc2ccc(O)cc2O)cc1`, the EC50 was 2.94 µM.

For `CC(C)C[C@H](NC(=O)c1[nH]cnc1C(=O)Nc1ccccc1)C(=O)OC(C)(C)C`, the EC50 is 3.8 µM.

Take `Cc1ccc(/C(O)=C/C(=O)C(=O)NC23CC4CC(CC(C4)C2)C3)cc1`: the EC50 is 2.06 µM.

With `C=CCn1c(N2C(=O)CC(Cc3ccccc3)C2=O)nc2ccccc21` (stereo not given), the EC50 is 4.5 µM.

For `COc1cnc(-c2ccccn2)nc1Oc1ccc(C(C)(C)C)cc1`, the EC50 was 7.68 µM.

On to `C/C(=N\NC(=O)c1cc2ccccc2cc1O)c1ccc2c(c1)OCO2`, for which the concentration for a half-maximal effect (EC50) was 2.18 µM.

Turning to `COc1ccc(Oc2nc(C(F)(F)F)nc3ccccc23)cc1`, the EC50 is 7.14 µM.

Turning to `CCCOC(=O)c1ccc(Oc2cn[nH]c2-c2ccc(OC)cc2O)cc1`, the EC50 was 7.36 µM.

In general, EC50 refers to the concentration giving half of the maximal effect.
